Results published in US10100331B2, “Reagent for gene-drug therapeutics” (Agency for Science, Technology and Research, priority 2012, dated 2018).
Where two headings read alike, the source gives them in different places.

Experiments:
HDAC3 = HDAC3 (Homo sapiens, UniProt O15379); details: Targeted HDAC/Sirtuin: 3; cited from earlier work
acetylated α-tubulin = assay: Tubulin acetylation immunostaining; assay type: cell-based; details: for tubulin acetylation: differentiated Neuro2A, 2 h, Tubastatin A 10 μM, TSA 50 nM, Paclitaxel 25 nM, SAHA 5 μM, Entinostat 10 μM, Tacedinaline 50 μM
Experimental: Then, cells were fixed with 4% formaldehyde and co-stained for acetylated α-tubulin and β-tubulin. Confocal images of the individual and merged channels are shown. Bar represents 20 μm. Further, a table is presented, showing the reagents and their respective targets, as well as the concentration at which the experiment was done.
FIG. 35 depicts micrographs showing the transient effect of Tubastatin A on tubulin acetylation. Neuro2a cells were treated with Tubastatin A (10 μM) for 12 hours. Then, chemicals were removed by replacement with complete media and cells were further incubated for 48 h. At various time points, cells were fixed with 4% formaldehyde and stained for acetylated α-tubulin (Green) and nucleus (Hoechst stain, Blue). Representative images were shown. Bar represents 20 μm.
Control and 10 μM differentiated Neuro2a Cells were fixed with 4% formaldehyde in 1×PBS for 20 min at room temperature and subsequently permeabilized in 0.5% Triton-X100 in 1×PBS. Then, the samples fixed cells were blocked with normal goat serum (1:10; Dako, Glostrup, Denmark) in 0.1% Triton X-100/1×PBS for 30 min at 37° C. The cells were then incubated with primary antibodies against acetylated α-Tubulin (Sigma Aldrich T7451, 1:200 dilution) or TuJ (R&D Systems MAB1195, 1:50 dilution) in 0.1% TritonX-100/1% BSA/1×PBS at 37° C. for 2 h and washed three times in 1×PBS. […] The cells were washed three times in 1×PBS and mounted. Image acquisition was performed using the Zeiss LSM710 with Axio Observer.Z1 confocal microscope system (Oberkochen, Germany). All images were taken with identical laser and optical settings.

human fetal MSC cells [1] = assay: GFP transfection of human fetal MSC; assay type: cell-based; details: PEIMAX/PMAXGFP N/P=10; 100 nM Trichostatin A
Experimental: Next, cells were harvested and GFP expressions were analysed by FACS analysis. Graph represents % of GFP+ cells. Error bar represents the standard error mean (S.E.M.) of n=3. Statistical significance of transfection efficiencies between cells exposed to polyplexes only and other conditions were obtained using two tailed student's t-test; *, p<0.01. Representative images of the transfected cells of each condition are presented.
Human fetal MSC cells were transfected with PEIMAX/PMAXGFP complex at N/P=10. […] Three days after transfection, media was replaced with fresh culture media. Bright field and fluorescent images were taken at Day 2, 7, 14 and 21 days post transfection. Representative imaged are presented.

PC3 cells = assay: GFP transfection of PC3 cells (FACS); assay type: cell-based, human; details: PEIMAX/PMAXGFP N/P=20
Experimental: Next, cells were harvested and GFP expression was analysed by FACS analysis. […] Representative images of the FACS analysis and transfected cells of each condition are presented. Error bar represents the standard error mean (S.E.M.) of n=3.

U251MG cells [2] = assay: Viable cell number after p53 transfection with transfection enhancers; assay type: cell-based; details: for cell death / cell number with p53 transfection: pEGFP-N1-p53, 10 μM Tubastatin A, 5 μM SAHA
MICA and NKG2D = MICA and NKG2D expression in PC3 cells (PCR); assay type: cell-based, human; details: 5 μM SAHA, up to 48 hours
Experimental: At the end of the incubation, the cells were collected and subjected to PCR analysis. […] The histogram here represented fold change to control after normalization with GAPDH.

KLF4 and c-Myc = KLF4 and c-Myc expression in HaF (PCR); assay type: cell-based, human; details: 1 mM VPA, up to 72 h
Experimental: Fibroblast cells were treated with 1 mM VPA for up to 3 days. At the end of incubation, the cells were collected and subjected to PCR analysis. Cells with no exposure to VPA (3 days) serve as control. Graphs present fold change to control after normalization with GAPDH.

HDAC1 = HDAC1 (Homo sapiens, UniProt Q13547); details: Targeted HDAC/Sirtuin: 1; cited from earlier work
HDAC6 = target: T1, HDAC6 (Homo sapiens, UniProt Q9UBN7); details: Targeted HDAC/Sirtuin: 6; cited from earlier work
T1 sequence (Q9UBN7 1-1215): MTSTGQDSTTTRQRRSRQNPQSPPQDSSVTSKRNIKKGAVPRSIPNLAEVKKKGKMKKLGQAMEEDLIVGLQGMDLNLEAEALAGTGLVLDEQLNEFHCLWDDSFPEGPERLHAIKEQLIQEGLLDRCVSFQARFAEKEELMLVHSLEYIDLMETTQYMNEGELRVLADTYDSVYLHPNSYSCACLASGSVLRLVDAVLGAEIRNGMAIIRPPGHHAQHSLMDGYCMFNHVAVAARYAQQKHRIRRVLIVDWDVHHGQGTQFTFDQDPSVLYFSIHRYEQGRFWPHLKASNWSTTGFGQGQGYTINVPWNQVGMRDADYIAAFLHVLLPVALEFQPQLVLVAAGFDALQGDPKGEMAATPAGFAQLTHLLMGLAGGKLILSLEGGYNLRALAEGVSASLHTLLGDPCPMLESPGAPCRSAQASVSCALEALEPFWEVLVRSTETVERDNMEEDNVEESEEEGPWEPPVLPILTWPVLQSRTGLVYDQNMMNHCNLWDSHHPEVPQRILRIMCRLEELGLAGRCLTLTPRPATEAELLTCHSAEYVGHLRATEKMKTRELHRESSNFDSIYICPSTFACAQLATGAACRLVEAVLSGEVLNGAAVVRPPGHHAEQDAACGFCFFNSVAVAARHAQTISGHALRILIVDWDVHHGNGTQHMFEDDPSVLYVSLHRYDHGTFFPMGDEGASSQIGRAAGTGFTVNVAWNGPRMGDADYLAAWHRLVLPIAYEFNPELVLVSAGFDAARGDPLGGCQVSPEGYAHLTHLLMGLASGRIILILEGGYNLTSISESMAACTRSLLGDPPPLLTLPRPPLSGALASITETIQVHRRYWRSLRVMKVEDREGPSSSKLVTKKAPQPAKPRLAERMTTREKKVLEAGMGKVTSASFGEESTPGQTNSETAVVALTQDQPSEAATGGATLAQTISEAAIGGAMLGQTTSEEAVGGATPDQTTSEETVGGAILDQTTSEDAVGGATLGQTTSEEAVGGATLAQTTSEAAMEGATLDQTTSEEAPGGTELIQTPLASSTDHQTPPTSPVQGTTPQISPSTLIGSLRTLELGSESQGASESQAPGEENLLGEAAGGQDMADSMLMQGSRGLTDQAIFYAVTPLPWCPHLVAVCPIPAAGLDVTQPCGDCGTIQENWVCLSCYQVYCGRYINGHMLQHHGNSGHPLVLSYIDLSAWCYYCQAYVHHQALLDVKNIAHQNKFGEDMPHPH

Neuro2A cells = assay type: cell-based; details: for cell death at the concentrations used: Dynasore 30 μg/ml, Filipin III 5 μg/ml, Rottlerin […]; for uptake of polyplex: inhibitor 45 min prior transfection, LPEI/pDNA N/P=20, 4 h
Experimental: A. Native and differentiated (10 μM RA) Neuro2a was treated with 2.5 μg/ml rottlerin, 5 μg/ml Filipin III or 30 μg/ml Dynasore for 45 min prior transfection. DMSO/0.5% FBS was used as control for treatment. After transfection with polyplex (N/P=20), cells were incubated at 4° C. or 37° C. for 4 h. Extracellular pDNA was removed by pAA/DNAse and cells were trypsinized. Then, samples were treated with pAA/urea lysis buffer and the absolute copy number of pDNA was quantified by qPCR. In similar experiments, native Neuro2A cells were incubated at 37° C. for 24 h post transfection. B. Representative fluorescent images (bottom rows), acquired 48 h post transfection. C. Percentage of cells expressing EGFP was counted. Significant differences in transfection efficiencies were calculated using the two tailed student's t-test. The data shown were the mean±s.e.m., n=4. *, p<0.05; **, p<0.005.
For studies using inhibitors, cells were incubated with Dynasore (30 μg/ml), Filipin III (5 μg/ml) or Rottlerin (2.5 μg/ml) in DMEM (0.5% FBS) for 45 min prior transfection. Cells were further incubated in DMEM (0.5% FBS) containing corresponding inhibitors post transfection.
To quantify DNA internalized by the cells, the supernatant was removed and the cells were washed once with 1×PBS and incubated in DMEM containing pAA/DNAse for 2 h at 4° C. Next, the cells were trypsinized and treated with pAA/urea lysis buffer. Efficiency of DNA release by pAA/urea lysis buffer and pAA/DNase was evaluated (Supplementary FIGS. 15 & 18). […] Primers specific for EGFP, forward primer (5′-3′, […]; SEQ ID NO:1) and reverse primer (5′-3′, […]; SEQ ID NO:2) were used. PCR quantification of the pDNA was performed as previously described (Yoong, L.F., G. Wan, and H.P. Too. Mol Cell Neurosci, 2009. 41(4): p. 464-73). The absolute amount of pDNA was determined using plasmid standards by interpolation.

[3] = system: differentiated Neuro2A cells; assay: Transfection efficiency (EGFP positive cells) of differentiated Neuro2A; assay type: cell-based; details: LPEI/pDNA N/P=20; chloroquine 25 or 100 μM, PLUS 10 or 20 μL, INF7 10 or 20 μg; 48 h
U251MG cells [4] = assay: GFP transfection of U251MG cells (FACS); assay type: cell-based; details: PEIMAX/PMAXGFP N/P=10; 10 μM Tubastatin A, 5 μM SAHA
Experimental: Furthermore, representative images of the FACS analysis and transfected cells for each conditions are presented. Error bar represents the standard error mean (S.E.M.) of n=3. […] Next, cells were harvested and GFP expressions were analysed by FACS analysis.

human fetal MSC cells [5] = assay: BMP2 expression in human MSC (qPCR); assay type: cell-based; details: PEIMAX/PMAXGFP-BMP2 N/P=10; 3 day post transfection; 5 μM Tubastatin A, 150 nM TSA
[6] = differentiated (10 μM RA) Neuro2A

HDAC1, sequence (Q13547 whole entry, species assumed): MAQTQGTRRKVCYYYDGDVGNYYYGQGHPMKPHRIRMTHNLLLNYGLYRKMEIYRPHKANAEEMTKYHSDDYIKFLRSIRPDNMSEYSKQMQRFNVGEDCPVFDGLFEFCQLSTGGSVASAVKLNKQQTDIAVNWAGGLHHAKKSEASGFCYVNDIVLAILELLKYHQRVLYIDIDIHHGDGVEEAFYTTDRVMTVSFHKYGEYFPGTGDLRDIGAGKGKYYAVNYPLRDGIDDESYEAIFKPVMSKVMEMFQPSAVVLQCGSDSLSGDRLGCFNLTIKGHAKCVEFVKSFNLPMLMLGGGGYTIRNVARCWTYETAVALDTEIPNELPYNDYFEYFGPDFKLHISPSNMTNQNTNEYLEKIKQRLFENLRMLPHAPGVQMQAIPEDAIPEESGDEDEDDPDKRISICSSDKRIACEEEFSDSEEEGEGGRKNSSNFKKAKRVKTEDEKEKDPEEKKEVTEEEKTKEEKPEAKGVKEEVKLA
HDAC3, sequence (O15379 whole entry): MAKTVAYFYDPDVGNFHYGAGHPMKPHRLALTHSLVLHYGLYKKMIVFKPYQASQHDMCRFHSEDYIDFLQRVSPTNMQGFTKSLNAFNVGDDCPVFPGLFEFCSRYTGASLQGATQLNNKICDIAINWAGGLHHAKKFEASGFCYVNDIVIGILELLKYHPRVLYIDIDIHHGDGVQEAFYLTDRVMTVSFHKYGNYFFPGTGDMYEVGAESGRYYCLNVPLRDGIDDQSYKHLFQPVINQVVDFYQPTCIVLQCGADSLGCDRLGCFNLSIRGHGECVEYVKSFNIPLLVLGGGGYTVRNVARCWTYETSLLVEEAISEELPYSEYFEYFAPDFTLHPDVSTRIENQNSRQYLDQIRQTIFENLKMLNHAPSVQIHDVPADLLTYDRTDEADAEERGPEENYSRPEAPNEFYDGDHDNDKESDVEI
HDAC3, sequence (Q9Y618 395-489 partner limits assumed): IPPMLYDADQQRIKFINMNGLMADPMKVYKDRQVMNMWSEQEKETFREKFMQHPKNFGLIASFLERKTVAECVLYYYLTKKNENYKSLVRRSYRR

For MC-1293, the IC50 (HDAC3) is given as 288 µM.

With `CC(/C=C/C(=O)NO)=C\[C@@H](C)C(=O)c1ccc(N(C)C)cc1` [Trichostatin A] the tubulin acetylation (acetylated α-tubulin) was “markedly enhanced tubulin acetylation”, the enhancement of transfection (human fetal MSC cells [1]) was “significant enhancement of transfection” and the enhancement of transfection (PC3 cells) was “significant enhancement of transfection”.

For `CC(=O)O[C@H]1C(=O)[C@@]2(C)[C@H]([C@H](OC(=O)c3ccccc3)[C@]3(O)C[C@H](OC(=O)[C@H](O)[C@@H](NC(=O)c4ccccc4)c4ccccc4)C(C)=C1C3(C)C)[C@]1(OC(C)=O)CO[C@@H]1C[C@@H]2O` [paclitaxel], the tubulin acetylation (acetylated α-tubulin) was “markedly enhanced tubulin acetylation”.

In the case of `O=C(CCCCCCC(=O)Nc1ccccc1)NO` [SAHA, vorinostat], the tubulin acetylation (acetylated α-tubulin) is reported as “markedly enhanced tubulin acetylation”, the “cell number on increasing duration of incubation with SAHA” value (U251MG cells [2]; p53, DOPE/CHEMS, 5 μM SAHA for 48, 72 and 96 h) is reported as “did not further reduce the cell number” and the “cell death / cell number with p53 transfection” value (U251MG cells [2]) is reported as “resulted in more cell death”. The “expression of MICA and NKG2D” value (MICA and NKG2D) was “induced up-regulation of MICA and NKG2D”.

For `CCCC(CCC)C(=O)O` [Valproic Acid], the “expressions of cMyc and KLF4” value (KLF4 and c-Myc) is given as “Gradual increment”, the IC50 (HDAC1) is given as 442 µM and the IC50 (HDAC6) is given as 11.8 mM.

For `CCCCC[C@@H](O)[C@H]1C(=O)O[C@H](C)[C@@H](O)/C=C/C=C/C=C/C=C/C=C(\C)[C@@H](O)C[C@H](O)C[C@H](O)C[C@H](O)C[C@H](O)C[C@H](O)C[C@@H]1O` [Filipin III], the “cell death at the concentrations used” value (Neuro2A cells) was “no evidence of cell death”, the uptake of polyplex (Neuro2A cells; [6]) was “did not affect polyplex uptake” and the uptake of polyplex (Neuro2A cells; native Neuro2A) was “did not affect polyplex uptake”.

With `CC(=O)Nc1ccc(C(=O)Nc2ccccc2N)cc1` [Tacedinaline] the tubulin acetylation (acetylated α-tubulin) was “not”.

In the case of `CCN(CC)CCCC(C)Nc1ccnc2cc(Cl)ccc12` (stereo not shown) [chloroquine], the “enhancement of transfection, reagent added post-transfection” value [3] is reported as “did not show cumulative enhancement of transfection”.

With `CN1CCc2c(c3ccccc3n2Cc2ccc(C(=O)NO)cc2)C1` [Tubastatin A] the “duration of effect on tubulin acetylation” value (acetylated α-tubulin; Neuro2a, Tubastatin A 10 μM for 12 hours then washout) was < 24 h, the tubulin acetylation (acetylated α-tubulin) was “markedly enhanced tubulin acetylation” and the transfection efficiency (U251MG cells [4]) was “significant enhancement in transfection efficiency”. For the same molecule, the “cell death / cell number with p53 transfection” value (U251MG cells [2]) was “did not result in greater reduction of cell number”, the “BMP2 expression, fold over the negative control” value (human fetal MSC cells [5]) was ~20,000 fold and the enhancement of transfection (PC3 cells) was “significant enhancement of transfection”.

With `O=C(N/N=C/c1ccc(O)c(O)c1)c1cc2ccccc2cc1O` [Dynasore] the uptake of polyplex (Neuro2A cells; [6]) was “significantly inhibited the uptake of polyplex” and the uptake of polyplex (Neuro2A cells; native Neuro2A) was “significantly inhibited the uptake of polyplex”.

For `C/C=C1\NC(=O)[C@H]2CSSCC/C=C/[C@H](CC(=O)N[C@H](C(C)C)C(=O)N2)OC(=O)[C@H](C(C)C)NC1=O` [Romidepsin], the IC50 (HDAC1) is listed as 0.08 µM.

With `Nc1ccccc1NC(=O)c1ccc(CNC(=O)OCc2cccnc2)cc1` [Entinostat] the tubulin acetylation (acetylated α-tubulin) was “not”.

For `CC(=O)c1c(O)c(C)c(O)c(Cc2c(O)c3c(c(C(=O)/C=C/c4ccccc4)c2O)OC(C)(C)C=C3)c1O` [Rottlerin], the “cell death at the concentrations used” value (Neuro2A cells) was “no evidence of cell death”, the uptake of polyplex (Neuro2A cells; [6]) was “not in differentiated cells” and the uptake of polyplex (Neuro2A cells; native Neuro2A) was “reduced the uptake of polyplex significantly”.

In the case of `O=C(/C=C/c1cccc(S(=O)(=O)Nc2ccccc2)c1)NO` [Belinostat], the IC50 (HDAC6) is given as 0.00041 mM.
